Laboratory results as given in patent publication US6699681B2, “Endothelin converting enzymes and the amyloid β peptide” (Mayo Foundation for Medical Education and Research, priority 2000, dated 2004).

Key:
[1] = test system: ECE-transfected CHO cells; assay: Aβ concentration in conditioned medium of ECE-1a- or ECE-1b-transfected CHO cells; type: cell-based, hamster
Method: (§1) Human and guinea pig Aβ40 or Aβ42 was measured in plasma by sandwich ELISA as previously described (Suzuki et al., 1994, Science, 264:1336-1340) using the BAN-50/BA-27 or BAN-50/BC-05 antibody systems, respectively (Takeda; Japan). Hamster Aβ40- or Aβ42-derived from CHO cells was measured using the BNT-77/BA-27 or BNT-77/BC-05 antibody systems, respectively. Aβ concentration in samples was determined by comparison to synthetic Aβ40 or Aβ42 standards (Bachem, Switzerland). Data was obtained from triplicate wells.
In particular, the sandwich ELISA used herein was performed as follows: 96-well microtiter plates were coated overnight at 4° C. with 100 μl of a 5 μg/ml dilution of primary antibody in sodium carbonate coating buffer (SCCB; 0.1 M Na2CO3, pH 9.6). Plates were blocked overnight at 4° C. with 300 μl of BLOCKAGE Solution (PBS+1.0% BLOCKAGE (Snow Brand Milk Products, Japan), 0.05% NaN3, pH 7.4). Samples for analysis and synthetic Aβ standards (Bachem, Switzerland) were diluted in buffer EC (0.02 M NaH2PO4, 0.002 M EDTA, 0.4 M NaCl, 0.2% BSA, 0.05% CHAPS, 0.04% BLOCKAGE, 0.05% NaN3, pH 7.0) and allowed to incubate on the plates overnight at 4° C. Plates were washed twice with PBS (8 mM Na2HPO4, 1.5 mM KH2PO4, 139 mM NaCl, 2.7 mM KCl, pH 7.4) and 100 μl of secondary antibody directly coupled to HRP (EZ-LINK™ Plus Activated Peroxidase kit (contents of kit: peroxidase, 5 M sodium cyanoborohydride solution (NaBH3CN), quenching buffer (3 M ethanolamine, pH 9.0), BupH™ phosphate buffered saline, Buph™ carbonate-bicarbonate buffer), according to manufacturers directions; Pierce Chemical Co., Rockford, Ill.) was allowed to bind either 4 hrs at room temperature or overnight at 4° C. Plates were then washed twice with PBS containing 0.05% Tween 20 followed by two additional washes in PBS. […] Plates were read at 450 nm in a SpectraMax Plus spectrophotometer (Molecular Devices; Sunnyvale, Calif.) and analyzed by SOFTmax® PRO software. Aβ40 or Aβ42 were quantitated by comparison with the values obtained for each synthetic Aβ standard from the same plate. […]

[2] = test system: ECE-transfected CHO cells; assay: Removal of synthetic Aβ40 spiked into culture medium of ECE-transfected CHO cells; type: cell-based, hamster
Method: as §1
In particular, the sandwich ELISA used herein was performed as follows: 96-well microtiter plates were coated overnight at 4° C. with 100 μl of a 5 μg/ml dilution of primary antibody in sodium carbonate coating buffer (SCCB; 0.1 M Na2CO3, pH 9.6). […] Plates were read at 450 nm in a SpectraMax Plus spectrophotometer (Molecular Devices; Sunnyvale, Calif.) and analyzed by SOFTmax® PRO software. Aβ40 or Aβ42 were quantitated by comparison with the values obtained for each synthetic Aβ standard from the same plate.
To determine whether extracellular removal of Aβ accounted, at least in part, for the dramatic decrease in extracellular Aβ concentration in ECE-transfected cell lines, synthetic Aβ40 was spiked into the culture medium in the presence or absence of phosphoramidon and the amount of unhydrolyzed Aβ was determined at 6 or 24 hrs by sandwich ELISA. […]

Q: Which results are given for `CC(C)C[C@H](NP(=O)(O)O[C@@H]1O[C@@H](C)[C@H](O)[C@@H](O)[C@H]1O)C(=O)N[C@@H](Cc1c[nH]c2ccccc12)C(=O)O` [phosphoramidon]?
A: reversal of the reduction in Aβ concentration in ECE-transfected cells ([1]; ECE-transfected CHO cells treated with phosphoramidon): completely reversed; phosphoramidon-induced accumulation of endogenous Aβ ([1]; parallel cultures of ECE-1a-transfected cells without synthetic Aβ, 24 hr): greater than 600%; increase in secretion of endogenous Aβ ([1]; phosphoramidon-treated ECE-transfected CHO cells, 6 hr): 1.5- to 2 fold; extracellular concentration of synthetic Aβ ([2]; 6 hr incubation, ECE-transfected and untransfected CHO cells, spiked synthetic Aβ40): not affected; ECE-1a-induced increase in Aβ removal ([2]; 24 hr, ECE-1a-transfected CHO cells treated with phosphoramidon): completely attenuated
